Reference: patent US6852909B2, “Process for producing female-sterile plants” (priority 1996, dated 2005)

Assays:
[1] = system: glutamine synthetase (GS); conditions: cited from earlier work
R. meliloti = experiment: Sensitivity of R. meliloti to PTC and PTT; format: cell-based, Rhizobium meliloti
From the text: Plasmids pIB17.1 and pIB17.2 were therefore transferred by means of a 2 factor cross into the Rhizobium meliloti strain 2011.

plants [2] = conditions: in vivo; cited from earlier work
wild-type plant = experiment: Injection of N-acetyl-PTC or N-acetyl-PTT into tobacco plants: stability, transport, effect on wild-type plant; format: in vivo
plants [3] = experiment: Herbicidal activity, uptake, transport and deacetylation in plants; format: in vivo; conditions: for deacetylation activity in plants / uptake, transport and degradation in plants: in vivo; for herbicidal activity: plants without deacetylase gene
From the text: In this way, the above-described 2-gene system can be reduced to a 1-gene system and thereby crucially simplified, as explained in more detail below: any plants can be transformed with a Streptomycetes-derived deacetylase gene under the control of a tissue-specific promoter. Following application of N-acetylphosphinothricin or N-acetylphosphinothricin-tripeptide, the tissue-specific expression leads to the immediate death of the corresponding tissue.

Nicotiana tabacum = experiment: Treatment of Nicotiana tabacum plants carrying the deacetylase gene; format: in vivo; conditions: transgenic Nicotiana tabacum, killed by liberated PTC or PTT
Method: The deacetylase gene which was modified in Example 1 was transferred into A. tumefaciens LBA4404 using a two-factor cross. Nicotiana tabacum leaf disks were incubated with the resulting strains LBA4404/17.1 and LBA4404/17.2 and, after 3 days, transferred to a kanamycin-containing shoot-inducing medium. Southern hybridization can be used to test regenerating kanamycin-resistant shoots for the presence of the deacetylase gene.

GS = conditions: E. coli with endogenous deacetylase activity
From the text: The deacetylase converts N-Ac-PTC into PTC, which then inhibits the GS in a known manner, as can be measured in a γ-glutamyltransferase assay (Bender et al., J. Bacteriol. 129, 1001-1009, 1977).

Botrytis cinerea = conditions: cited from earlier work
[4] = system: Gram-positive and Gram-negative bacteria; conditions: cited from earlier work

Compound	inhibitor of glutamine synthetase (GS) [1]	sensitivity of R. meliloti (R. meliloti)	herbicidal action (plants [2])	stability and transport in the plant cell (wild-type plant; in vivo)	consequences for the wild-type plant (wild-type plant)	deacetylation activity in plants (plants [3])	uptake, transport and degradation in plants (plants [3])	herbicidal activity (plants [3])	effect on plants containing the deacetylase gene (Nicotiana tabacum)	inhibition of GS activity after adding the substance (GS)	activity against the fungus Botrytis cinerea (Botrytis cinerea)	activity against Gram-positive and Gram-negative bacteria [4]
2-amino-4-methylphosphinobutyric acid [PTC]	inhibitor of glutamine synthetase	reacts very sensitively	acts as a total herbicide									
CC(=O)NC(CCP(C)(=O)O)C(=O)O (stereo not drawn) [N-acetyl-PTC, N-acetylphosphinothricin]				stable in the plant cell and transported into all cells	Neither of the two substances has recognizably negative consequences	No deacetylation activity	taken up by plants and transported and not degraded immediately	neither substance is herbicidally active	the plants are then killed	efficient inhibition of GS activity		
CC(=O)NC(CCP(C)(=O)O)C(=O)NC(C)C(=O)NC(C)C(=O)O (stereo not drawn) [N-acetyl-PTT, N-acetylphosphinothricin tripeptide]					Neither of the two substances has recognizably negative consequences	No deacetylation activity	taken up by plants and transported and not degraded immediately	neither substance is herbicidally active	the plants are then killed			
C[C@H](NC(=O)[C@H](C)NC(=O)[C@@H](N)CCP(C)(=O)O)C(=O)O [PTT, phosphinothricylalanylalanine]		reacts very sensitively									also against the fungus Botrytis cinerea	active against Gram-positive and Gram-negative bacteria
